Assay results taken from publication PMC4112042, “Phase 1 dose-escalation study of the PARP inhibitor CEP-9722 as monotherapy or in combination with temozolomide in patients with solid tumors” (Cancer Chemotherapy and Pharmacology, 2014).

How the values were obtained:
advanced solid tumors = experiment: Best tumor response according to RECIST 1.0; format: in vivo, human
Description: Tumor assessment was performed within 4 weeks before the first dose of study drug and within the fourth week of cycle 2 using computed tomography or magnetic resonance imaging with contrast. In patients who continued treatment, tumor assessment was performed every 2 cycles and at the end of treatment visit, at the discretion of the investigator.

[1] = system: patients with advanced solid tumors; experiment: Phase 1 dose-escalation: safety, DLT and MTD
Description: The study consisted of a screening period to determine patient eligibility, a 14-day cycle in which CEP-9722 was administered once daily as monotherapy, and subsequent 28-day cycles in which CEP-9722 and temozolomide were administered as combination therapy. In cycle 1, the first patient in each dosing cohort received CEP-9722 on days 1, 3, 4, and 5, while other patients in each cohort received CEP-9722 on days 1–5. In cycle 2, patients received CEP-9722 and temozolomide on days 1–5 (Supplemental Fig.). CEP-9722 was escalated from a starting dose of 150 mg/day up to 1,000 mg/day, and temozolomide was given at the dose of 150 mg/m^2/day at all dose levels of CEP-9722. Both CEP-9722 and temozolomide were administered in the fasted state.
Patients were enrolled in cohorts of 3. Enrollment in the next cohort commenced when the third patient in the current cohort had completed day 28 of cycle 2 without a dose-limiting toxicity (DLT).
Safety was assessed using adverse event data, clinical laboratory test results, vital signs measurement, ECG findings, physical examination findings, ECOG performance status, and concomitant medication usage.

[2] = Plasma pharmacokinetics of CEP-8983 after oral CEP-9722; format: in vivo, human; details: patients
Description: Pharmacokinetic serum samples were collected on day 1 of cycle 1 pre-dose and 0.5, 1, 2, 3, 4, 6, 8, 10, and 24 h post-dose; and on day 5 of cycle 1 and cycle 2 pre-dose, and 0.5, 1, 2, 3, 4, 6, 8, 10, 24, and 48 h post-dose. Urine samples were obtained on day 1 of cycle 1 during 4 intervals in the 24 h following study drug administration. Pharmacokinetic parameters (area under the plasma drug concentration–time curve from time 0 to infinity [AUC0–∞], AUC from time 0 to the time of the last measurable drug concentration [AUC0–t], AUC for 1 dosing interval [AUCτ] following multiple doses, maximum observed plasma concentration [C max], and time to maximum observed plasma concentration [T max]) were summarized at each visit (day 1 of cycle 1 and day 5 of cycles 1 and 2) using descriptive statistics.

[3] = system: PARP in peripheral blood mononuclear cells (PBMCs); experiment: PAR ELISA in PBMCs (PARP inhibition, pharmacodynamics); format: in vivo, human
Description: Pharmacodynamics were assessed by the measurement of PAR concentrations in PBMCs. PBMCs were isolated at site, and the frozen cell pellet was sent to a central laboratory (Trevigen Inc., Gaithersburg, MD, USA) for processing and analysis by PAR enzyme-linked immunosorbent assay (ELISA). Pharmacodynamic samples were collected on 2 consecutive days at screening visits and on days 1, 5 (pre-dose and 2 h [cycle 1 only], 6 h, and 24 h post-dose), and 8 (at the time of hematology laboratory testing). The PAR concentrations in the 2 screening samples and the day 1 pre-dose sample were averaged to provide a baseline value, and the percentage inhibition from baseline was calculated in the post-dose samples.

[4] = cohort 1, 150 mg/day, 2 evaluated
[5] = cohort 2, 300 mg/day, 6 evaluated
[6] = cohort 3, 500 mg/day, 3 evaluated
[7] = cohort 4, 750 mg/day, 9 evaluated
[8] = cohort 5, 1,000 mg/day, 2 evaluated
[9] = cycle 1, single-agent CEP-9722, total, all dose levels (N=26)
[10] = cycles ≥2, CEP-9722 combined with temozolomide, 150 mg/day (N=3)
[11] = cycles ≥2, CEP-9722 combined with temozolomide, 300 mg/day (N=6)
[12] = cycles ≥2, CEP-9722 combined with temozolomide, 500 mg/day (N=3)
[13] = cycles ≥2, CEP-9722 combined with temozolomide, 750 mg/day (N=11)
[14] = cycles ≥2, CEP-9722 combined with temozolomide, 1,000 mg/day (N=3)

COc1cccc2[nH]c3c4c(c5c(c3c12)C(=O)N(CN1CCN(C)CC1)C5=O)CCC4 [CEP-9722]
Partial response (advanced solid tumors; [4]): 0 patients
Progressive disease (advanced solid tumors; [4]): 2 patients
Stable disease (advanced solid tumors; [4]): 0 patients
Partial response (advanced solid tumors; [5]): 0 patients
Progressive disease (advanced solid tumors; [5]): 5 patients
Stable disease (advanced solid tumors; [5]): 1 patients
Partial response (advanced solid tumors; [6]): 0 patients
Progressive disease (advanced solid tumors; [6]): 1 patients
Stable disease (advanced solid tumors; [6]): 2 patients
Partial response (advanced solid tumors; [7]): 0 patients
Progressive disease (advanced solid tumors; [7]): 8 patients
Stable disease (advanced solid tumors; [7]): 1 patients
Partial response (advanced solid tumors; [8]): 1 patients
Progressive disease (advanced solid tumors; [8]): 1 patients
Stable disease (advanced solid tumors; [8]): 0 patients
reduction in target lesions (RECIST) in the patient with partial response (advanced solid tumors; melanoma patient, 1,000 mg/day with temozolomide): 58%
duration of partial response (advanced solid tumors; melanoma patient, 1,000 mg/day with temozolomide, first observed after 6 cycles): 5.8 months
Progressive disease (advanced solid tumors; total, all cohorts, 22 evaluated): 17 patients
Anorexia (treatment-related adverse event, all grades) [1, 9]: 3 (12) N patients (%)
Asthenia (treatment-related adverse event, all grades) [1, 9]: 5 (19) N patients (%)
Blood creatinine phosphokinase increased (treatment-related adverse event, all grades) [1, 9]: 2 (8) N patients (%)
Constipation (treatment-related adverse event, all grades) [1, 9]: 2 (8) N patients (%)
Diarrhea (treatment-related adverse event, all grades) [1, 9]: 7 (27) N patients (%)
Fatigue (treatment-related adverse event, all grades) [1, 9]: 4 (15) N patients (%)
Headache (treatment-related adverse event, all grades) [1, 9]: 10 (38) N patients (%)
Nausea (treatment-related adverse event, all grades) [1, 9]: 12 (46) N patients (%)
Vomiting (treatment-related adverse event, all grades) [1, 9]: 7 (27) N patients (%)
Anemia (treatment-related adverse event, all grades) [1, 10]: 0 N patients (%)
Anorexia (treatment-related adverse event, all grades) [1, 10]: 0 N patients (%)
Aspartate aminotransferase increased (treatment-related adverse event, all grades) [1, 10]: 0 N patients (%)
Asthenia (treatment-related adverse event, all grades) [1, 10]: 0 N patients (%)
Constipation (treatment-related adverse event, all grades) [1, 10]: 0 N patients (%)
Diarrhea (treatment-related adverse event, all grades) [1, 10]: 0 N patients (%)
Dyspepsia (treatment-related adverse event, all grades) [1, 10]: 0 N patients (%)
Fatigue (treatment-related adverse event, all grades) [1, 10]: 0 N patients (%)
Gamma-glutamyltransferase increased (treatment-related adverse event, all grades) [1, 10]: 0 N patients (%)
Anemia (treatment-related adverse event, all grades) [1, 11]: 0 N patients (%)
Anorexia (treatment-related adverse event, all grades) [1, 11]: 1 (17) N patients (%)
Aspartate aminotransferase increased (treatment-related adverse event, all grades) [1, 11]: 0 N patients (%)
Asthenia (treatment-related adverse event, all grades) [1, 11]: 0 N patients (%)
Constipation (treatment-related adverse event, all grades) [1, 11]: 0 N patients (%)
Diarrhea (treatment-related adverse event, all grades) [1, 11]: 0 N patients (%)
Dyspepsia (treatment-related adverse event, all grades) [1, 11]: 0 N patients (%)
Gamma-glutamyltransferase increased (treatment-related adverse event, all grades) [1, 11]: 0 N patients (%)
Anemia (treatment-related adverse event, all grades) [1, 12]: 1 (33) N patients (%)
Anorexia (treatment-related adverse event, all grades) [1, 12]: 0 N patients (%)
Aspartate aminotransferase increased (treatment-related adverse event, all grades) [1, 12]: 1 (33) N patients (%)
Asthenia (treatment-related adverse event, all grades) [1, 12]: 2 (67) N patients (%)
Constipation (treatment-related adverse event, all grades) [1, 12]: 0 N patients (%)
Diarrhea (treatment-related adverse event, all grades) [1, 12]: 0 N patients (%)
Dyspepsia (treatment-related adverse event, all grades) [1, 12]: 0 N patients (%)
Fatigue (treatment-related adverse event, all grades) [1, 12]: 0 N patients (%)
Gamma-glutamyltransferase increased (treatment-related adverse event, all grades) [1, 12]: 1 (33) N patients (%)
Anemia (treatment-related adverse event, all grades) [1, 13]: 1 (9) N patients (%)
Anorexia (treatment-related adverse event, all grades) [1, 13]: 1 (9) N patients (%)
Aspartate aminotransferase increased (treatment-related adverse event, all grades) [1, 13]: 1 (9) N patients (%)
Asthenia (treatment-related adverse event, all grades) [1, 13]: 4 (36) N patients (%)
Diarrhea (treatment-related adverse event, all grades) [1, 13]: 3 (27) N patients (%)
Dyspepsia (treatment-related adverse event, all grades) [1, 13]: 2 (18) N patients (%)
Fatigue (treatment-related adverse event, all grades) [1, 13]: 4 (36) N patients (%)
Gamma-glutamyltransferase increased (treatment-related adverse event, all grades) [1, 13]: 2 (18) N patients (%)
Anemia (treatment-related adverse event, all grades) [1, 14]: 0 N patients (%)
Aspartate aminotransferase increased (treatment-related adverse event, all grades) [1, 14]: 0 N patients (%)
Asthenia (treatment-related adverse event, all grades) [1, 14]: 0 N patients (%)
Constipation (treatment-related adverse event, all grades) [1, 14]: 1 (33) N patients (%)
Dyspepsia (treatment-related adverse event, all grades) [1, 14]: 0 N patients (%)
Fatigue (treatment-related adverse event, all grades) [1, 14]: 1 N patients (%)
Gamma-glutamyltransferase increased (treatment-related adverse event, all grades) [1, 14]: 0 N patients (%)
abdominal pain, adverse event ([1]; human, in vivo): 35%
anemia, adverse event ([1]; human, in vivo): 23%
anorexia, adverse event ([1]; human, in vivo): 35%
asthenia, adverse event ([1]; human, in vivo): 42%
constipation, adverse event ([1]; human, in vivo): 50%
diarrhea, adverse event ([1]; human, in vivo): 42%
fatigue, adverse event ([1]; human, in vivo): 31%
grade 3–4 lymphopenia (laboratory) ([1]; human, in vivo): 5 patients
headache, adverse event ([1]; human, in vivo): 50%
nausea, adverse event ([1]; human, in vivo): 77%
patients with treatment-related adverse events (TRAEs) ([1]; human, in vivo): 24 (92 %) patients (%)
recommended phase 2 dose ([1]; human, in vivo): 750 mg/day
vomiting, adverse event ([1]; human, in vivo): 65%
Abdominal pain (treatment-related adverse event, all grades) ([1]; human, in vivo, 14 day): 2 (8) N patients (%)
central review of ECGs ([1]; in vivo): no clinically significant abnormalities
patients who withdrew due to adverse events ([1]; in vivo): Four patients
patients with dose delays due to hematological toxicity ([1]; in vivo): three patients
patients with grade 3–4 laboratory hematologic toxicities ([1]; in vivo): Six patients
maximum tolerated dose (MTD) ([1]; with temozolomide 150 mg/m^2): 750 mg/day
conversion of CEP-9722 into its active form [2]: rapid
PAR concentrations in PBMCs relative to baseline ([3]; 2 and 6 h post-dose, cycle 1, without temozolomide): reduction in PAR concentrations relative to baseline was observed
reduction in PAR concentrations in PBMCs ([3]; 6 h post-dose, cycle 2, with temozolomide): less marked
inhibitory effects on PAR production ([3]; 24 h post-dose sample): lost
